According to patent publication US9701664B2, “Fused 1,4-dihydrodioxin derivatives as inhibitors of heat shock transcription factor 1” (Cancer Research Technology Limited, priority 2013, dated 2017):

Tests used:
HSP72 in U2OS cells = assay: Cell-based ELISA (Cellisa) assay, U2OS cells: inhibition of 17-AAG-induced HSP72; settings: Homo sapiens; U2OS cells (Examples 1-168)
U2OS cells = assay: Titre Blue cell viability assay, U2OS cells; assay type: cell-based; settings: Homo sapiens, U2OS

SMILES | IC50 (HSP72 in U2OS cells) | IC50 (U2OS cells)
Cc1ccc(NC(=O)c2ccc3c(c2)OCCO3)cc1NC(=O)c1ccc2c(c1)CCC(C)N2 (centres unmarked) [Example 152, N-(5-(2,3-dihydrobenzo[b][1,4]dioxine-6-carboxamido)-2-methylphenyl)-2-methyl-1,2,3,4-tetrahydroquinoline-6-carboxamide] | 105 nM | 153 nM
CNC(=O)c1ccc(C(=O)Nc2cc(NC(=O)c3ccc4c(c3)OCCO4)ccc2C)cn1 [Example 33, N5-(5-(2,3-dihydrobenzo[b][1,4]dioxine-6-carboxamido)-2-methylphenyl)-N2-methylpyridine-2,5-dicarboxamide] | 797 nM | 230 nM
Cc1ccc(NC(=O)c2ccc3c(c2)OCCO3)cc1NC(=O)c1ccc2nc(COCC(C)C)ccc2c1 [Example 151, N-(5-(2,3-dihydrobenzo[b][1,4]dioxine-6-carboxamido)-2-methylphenyl)-2-(isobutoxymethyl)quinoline-6-carboxamide] | 100 nM | 26 nM
Cc1ccc(NC(=O)c2ccc3c(c2)OCCO3)cc1NC(=O)c1ccc2[nH]c(=O)ccc2c1 [Example 48, N-(5-(2,3-dihydrobenzo[b][1,4]dioxine-6-carboxamido)-2-methylphenyl)-2-oxo-1,2-dihydroquinoline-6-carboxamide] | 141 nM | 172 nM
Cc1ccc(NC(=O)c2ccc3c(c2)OCCO3)cc1NC(=O)c1ccc(OCc2ccccn2)nc1 [Example 25, N-(5-(2,3-dihydrobenzo[b][1,4]dioxine-6-carboxamido)-2-methylphenyl)-6-(pyridin-2-ylmethoxy)nicotinamide] | 1610 nM | 1130 nM
Cc1ccc(NC(=O)c2ccc3c(c2)OCCO3)cc1NC(=O)c1ccc2nc(OCCCN3CCCC3)ccc2c1 [Example 56, N-(5-(2,3-dihydrobenzo[b][1,4]dioxine-6-carboxamido)-2-methylphenyl)-2-(3-(pyrrolidin-1-yl)propoxy)quinoline-6-carboxamide] | 13 nM | 3 nM
Cc1ccc(NC(=O)c2ccc3c(c2)OCCO3)cc1NC(=O)c1ccc2c(c1)COC2 [Example 15, N-(3-(1,3-dihydroisobenzofuran-5-carboxamido)-4-methylphenyl)-2,3-dihydrobenzo[b][1,4]dioxine-6-carboxamide] | 76 nM | 75 nM
Cc1ccc(NC(=O)c2ccc3c(c2)OCCO3)cc1NC(=O)c1ccc2nc(CCN3CCOCC3)ccc2c1 [Example 144, N-(5-(2,3-dihydrobenzo[b][1,4]dioxine-6-carboxamido)-2-methylphenyl)-2-(2-morpholinoethyl)quinoline-6-carboxamide] | 60 nM | 80 nM
Cc1ccc(NC(=O)c2ccc3c(c2)OCCO3)cc1NC(=O)c1ccc2nc(N(C)CCN(C)C)ccc2c1 [Example 58, N-(5-(2,3-dihydrobenzo[b][1,4]dioxine-6-carboxamido)-2-methylphenyl)-2-((2-(dimethylamino)ethyl)(methyl)amino)quinoline-6-carboxamide] | 15 nM | 33 nM
Cc1ccc(NC(=O)c2ccc3c(c2)OCCO3)cc1NC(=O)c1ccc2c(c1)COC2=O [Example 8, N-(4-methyl-3-(1-oxo-1,3-dihydroisobenzofuran-5-carboxamido)phenyl)-2,3-dihydrobenzo[b][1,4]dioxine-6-carboxamide] | 205 nM | 108 nM
Cc1ccc2cc(C(=O)Nc3cccc(NC(=O)c4ccc5c(c4)OCCO5)c3)ccc2n1 [Example 113, N-(3-(2,3-dihydrobenzo[b][1,4]dioxine-6-carboxamido)phenyl)-2-methylquinoline-6-carboxamide] | 160 nM | 117 nM
Cc1ccc(NC(=O)c2ccc3c(c2)OCCO3)cc1NC(=O)c1ccc2nc(OCCNC(=O)OC(C)(C)C)ccc2c1 [Example 21, tert-butyl (2-((6-((5-(2,3-dihydrobenzo[b][1,4]dioxine-6-carboxamido)-2-methylphenyl)carbamoyl)quinolin-2-yl)oxy)ethyl)carbamate] | 141 nM | 84 nM
Cc1ccc(NC(=O)c2ccc3c(c2)OCO3)cc1NC(=O)c1ccc2ncccc2c1 [Example 131, N-(5-(benzo[d][1,3]dioxole-5-carboxamido)-2-methylphenyl)quinoline-6-carboxamide] | 171 nM | 74 nM
COc1ccc2cc(C(=O)Nc3cc(NC(=O)c4ccc5c(c4)OCCO5)ccc3C)ccc2n1 [Example 29, N-(5-(2,3-dihydrobenzo[b][1,4]dioxine-6-carboxamido)-2-methylphenyl)-2-methoxyquinoline-6-carboxamide] | 499 nM | 626 nM
Cc1ccc(NC(=O)c2ccc3c(c2)OCCO3)cc1NC(=O)c1ccc2nc(OCCN3CCC3)ccc2c1 [Example 60, 2-(2-(azetidin-1-yl)ethoxy)-N-(5-(2,3-dihydrobenzo[b][1,4]dioxine-6-carboxamido)-2-methylphenyl)quinoline-6-carboxamide] | 16 nM | 13 nM
Cc1ccc2cc(C(=O)Nc3cc(NC(=O)c4cnc5c(c4)OCCO5)ccc3C)ccc2n1 [Example 135, N-(4-methyl-3-(2-methylquinoline-6-carboxamido)phenyl)-2,3-dihydro-[1,4]dioxino[2,3-b]pyridine-7-carboxamide] | 27 nM | 29 nM

SMILES | IC50 (HSP72 in U2OS cells) | IC50 (U2OS cells)
COc1ccc(C(=O)Nc2cc(NC(=O)c3ccc4c(c3)OCCO4)ccc2C)cc1C [Example 26, N-(3-(4-methoxy-3-methylbenzamido)-4-methylphenyl)-2,3-dihydrobenzo[b][1,4]dioxine-6-carboxamide] | 262 nM | 71 nM
Cc1ccc2cc(C(=O)Nc3cc(NC(=O)c4ccc5c(c4)OCCO5)ccc3C(F)(F)F)ccc2n1 [Example 129, N-(5-(2,3-dihydrobenzo[b][1,4]dioxine-6-carboxamido)-2-(trifluoromethyl)phenyl)-2-methylquinoline-6-carboxamide] | 344 nM | 162 nM
Cc1ccc(NC(=O)c2ccc3c(c2)OCCO3)cc1NC(=O)c1ccc2nc(OCCCNC(=O)OC(C)(C)C)ccc2c1 [Example 35, tert-butyl (3-((6-((5-(2,3-dihydrobenzo[b][1,4]dioxine-6-carboxamido)-2-methylphenyl)carbamoyl)quinolin-2-yl)oxy)propyl)carbamate] | 867 nM | 432 nM
Cc1ccc(NC(=O)c2ccc3c(c2)OCCO3)cc1NC(=O)c1ccc2nc(COCCN3CCCC3)ccc2c1 [Example 147, N-(5-(2,3-dihydrobenzo[b][1,4]dioxine-6-carboxamido)-2-methylphenyl)-2-((2-(pyrrolidin-1-yl)ethoxy)methyl)quinoline-6-carboxamide] | 83 nM | 54 nM
Cc1ccc(NC(=O)c2ccc3c(c2)OCCO3)cc1NC(=O)c1ccc2nc(CCO)ccc2c1 [Example 75, N-(5-(2,3-dihydrobenzo[b][1,4]dioxine-6-carboxamido)-2-methylphenyl)-2-(2-hydroxyethyl)quinoline-6-carboxamide] | 17 nM | 56 nM
Cc1ccc(NC(=O)c2ccc3c(c2)OCCO3)cc1NC(=O)c1ccc2c(c1)CCO2 [Example 6, N-(3-(2,3-dihydrobenzofuran-5-carboxamido)-4-methylphenyl)-2,3-dihydrobenzo[b][1,4]dioxine-6-carboxamide] | 17 nM | 77 nM
Cc1ccc(NC(=O)c2ccc3c(c2)OCCO3)cc1NC(=O)c1ccc2c(c1)CS(=O)(=O)N2C [Example 168, N-(5-(2,3-dihydrobenzo[b][1,4]dioxine-6-carboxamido)-2-methylphenyl)-1-methyl-1,3-dihydrobenzo[c]isothiazole-5-carboxamide 2,2-dioxide] | 14 nM | 19 nM
COc1ccc(C(=O)Nc2cc(NC(=O)c3ccc4c(c3)OCCO4)ccc2C)cc1 [Example 27, N-(3-(4-methoxybenzamido)-4-methylphenyl)-2,3-dihydrobenzo[b][1,4]dioxine-6-carboxamide] | 371 nM | 106 nM
Cc1ccc(NC(=O)c2ccc3c(c2)OCCO3)cc1NC(=O)c1cnc2ccncc2c1 [Example 43, N-(5-(2,3-dihydrobenzo[b][1,4]dioxine-6-carboxamido)-2-methylphenyl)-1,6-naphthyridine-3-carboxamide] | 22 nM | 34 nM
Cc1ccc(NC(=O)c2ccc3c(c2)OCCO3)cc1NC(=O)c1ccc(OCc2cscn2)cc1 [Example 101, N-(4-methyl-3-(4-(thiazol-4-ylmethoxy)benzamido)phenyl)-2,3-dihydrobenzo[b][1,4]dioxine-6-carboxamide] | 122 nM | 59 nM
COCCOc1ccc2cc(C(=O)Nc3cc(NC(=O)c4ccc5c(c4)OCCO5)ccc3C)ccc2n1 [Example 3, N-(5-(2,3-dihydrobenzo[b][1,4]dioxine-6-carboxamido)-2-methylphenyl)-2-(2-methoxyethoxy)quinoline-6-carboxamide] | 7 nM | 29 nM
Cc1ccc(NC(=O)c2ccc3c(c2)OCCO3)cc1NC(=O)c1ccc2nc(COCC3CCCO3)ccc2c1 (centres unmarked) [Example 146, N-(5-(2,3-dihydrobenzo[b][1,4]dioxine-6-carboxamido)-2-methylphenyl)-2-(((tetrahydrofuran-2-yl)methoxy)methyl)quinoline-6-carboxamide] | 77 nM | 20 nM
Cc1ccc(NC(=O)c2ccc3c(c2)OCCO3)cc1NC(=O)c1ccc(OCc2cscn2)nc1 [Example 13, N-(5-(2,3-dihydrobenzo[b][1,4]dioxine-6-carboxamido)-2-methylphenyl)-6-(thiazol-4-ylmethoxy)nicotinamide] | 262 nM | 217 nM
Cc1ccc(NC(=O)c2ccc3c(c2)OCCO3)cc1NC(=O)c1cnc2cnccc2c1 [Example 44, N-(5-(2,3-dihydrobenzo[b][1,4]dioxine-6-carboxamido)-2-methylphenyl)-1,7-naphthyridine-3-carboxamide] | 11 nM | 24 nM
Cc1ccc(NC(=O)c2ccc3c(c2)OCCO3)cc1NC(=O)c1ccc(-n2cccn2)cc1 [Example 107, N-(3-(4-(1H-pyrazol-1-yl)benzamido)-4-methylphenyl)-2,3-dihydrobenzo[b][1,4]dioxine-6-carboxamide] | 295 nM | 227 nM
